# Patent US11104660B2, “PDE4D inhibitors” (TETRA DISCOVERY PARTNERS, INC., priority 2019, dated 2021)
# Like-named read-outs stand apart in the source and are kept apart here.
# Experiments:
# [1] = system: PDE4D; assay: Occupancy of Compound B by PET with Compound A (Lassen plot); type: in vivo, cynomolgus non-human primates (Macaca fascicularis); details: Compound B 3 mg/kg infusion
# Text: (§1) Two male non-naïve cynomolgus non-human primates (Macaca fascicularis) (“Subject 1” and “Subject 2”) were utilized in this study (7.0 and 5.5 kg). Subjects had previously undergone surgery for placement of arterial access ports for blood collection from the iliac artery. Each subject underwent a brain MR in a Philips 1.5T Intera scanner using a 3D T1 FFE sequence for subsequent registration with PET and application of a cynomolgus brain region of interest atlas for determination of regional time-activity curves. PET scans were conducted in each subject under baseline condition (i.e., Compound A, only) and 15 minutes after a 10 minute infusion of Compound B at 3 mg/kg (i.e. blocking condition). Compound B is a known PDE4D ligand, alternatively referred to as BPN14770.
# (§2) Volume of distribution (VT) (mL/cm^3) of Compound A was estimated with the 2-tissue compartment (2TC) model and Logan graphical analysis (LGA, t*=30), for baseline and blocking scans, using 90 min of data. VT at baseline and blocking in ROIs were used to compute occupancy of Compound B via the occupancy (Lassen) plot. Time stability of VT estimated from 2TC and LGA models were assessed for both animals from 90 min or 120 minutes of data for baseline and blocking scans.
# [2] = system: PDE4D; assay: PET imaging of 11C-labeled Compound A in non-human primate brain (VT, uptake); type: in vivo, cynomolgus non-human primates (Macaca fascicularis); details: for VT (volume of distribution): 90 min
# Experimental: The regional distribution and pharmacokinetics of ^11C-labeled compounds as described herein were evaluated on non-human primates via PET imaging.
# as §1
# PET scans were conducted with a Siemens Focus 220 microPET scanner. Subjects were anesthetized with ketamine 10 mg/kg IM approximately 45 minutes prior to Compound A injection. Atropine sulfate 0.05 mg/kg IM was administered approximately 35 minutes prior to Compound A injection. Subjects were intubated and maintained on isoflurane (2-2.5%) and oxygen (2 L/min). Indwelling catheters were placed in the saphenous veins for drug infusion, tracer injection and fluids (LRS 10 mL/kg/hr IV). Subjects were transported to the PET imaging bed, positioned, and monitored for body temperature, heart rate, expired CO2, respiration rate, and pulse O2.
# (§3) A dynamic 90 (Subject 1) or 120 (Subject 2) minute PET scan acquisition was initiated at the start of Compound A injection, administered over 3 minutes via an infusion pump targeting an injected activity of 5 mCi. Relative to time of Compound A injection, arterial blood samples were collected in K2EDTA at −10, 0.75, 1.5, 2.25, 3, 4, 5, 10, 15, 30, 45, 60, 90 and 120 min. For each sample, an aliquot (200 uL) was gamma counted for radioactivity concentration determination, then processed to plasma. For −10, 5, 15, 30, 60, 90, 120 min plasma samples, radio HPLC was performed for determination of parent fraction of Compound A, and −10 min samples spiked with Compound A were used for stability analysis and determination of plasma free fraction. Aliquots (100 uL) of plasma samples collected at −10, 5, 15, 30, 60, 90, 120 min were frozen for subsequent determination of drug concentration levels.
# At the conclusion of PET scan acquisition, an x-ray CT scan by an 8 slice NeuroLogica CereTom OTOscan of each Subject was collected of the head at 120 kVp, 4 mAs, slice thickness 0.625 mm and processed using filtered back projection. The CT scan was used for co-registration to PET for attenuation and scatter correction of the reconstructed PET scan. Listmode PET data were binned into 6×0.5 min, 3×1 min, 2×2 min and 22 ×5 min frames. Binned sinogram data were reconstructed by filtered backprojection.
# Reconstructed PET images were analyzed using PMOD software. PET scans were transformed into MR template space via rigid PET-to-MR and affine+nonlinear MR-to-template registrations. Time-activity curves were generated from regions of interest (ROIs) defined on the MR template including the anterior cingulate, cerebellum, dorsolateral prefrontal cortex, entorhinal cortex, occipital cortex, striatum and thalamus. Peak uptake in the brain was between about 3.2% and 5.6% of the injected dose.
# as §2
# [3] = Plasma free fraction of Compound A (spiked -10 min plasma samples); type: in vitro ADME, cynomolgus non-human primates (Macaca fascicularis); details: cynomolgus monkey, read-out: fp (%) Plasma free fraction
# Experimental: as §3
smiles,measurement,setting,value
NC(=O)Cc1ccc(Nc2cc(C(F)(F)F)nc(-c3cccc(Cl)c3)n2)cc1 [Compound B],Occupancy (%),"[1]; Subject 1, 2TC",84%
same,Occupancy (%),"[1]; Subject 1, LGA",88%
same,Occupancy (%),"[1]; Subject 2, 2TC",82%
same,Occupancy (%),"[1]; Subject 2, LGA",73%
[2H]C([2H])(c1cn[nH]c1)c1ccc(O[11CH3])c(-c2cccc([N+](=O)[O-])c2)n1 [Compound A],VT (volume of distribution),"[2]; Anterior Cingulate, Subject 1, 2TC, baseline",15.8 mL/cm^3
same,VT (volume of distribution),"[2]; Anterior Cingulate, Subject 1, 2TC, blocking (Compound B 3 mg/kg)",8.8 mL/cm^3
same,VT (volume of distribution),"[2]; Anterior Cingulate, Subject 1, LGA, baseline",13.8 mL/cm^3
same,VT (volume of distribution),"[2]; Anterior Cingulate, Subject 1, LGA, blocking (Compound B 3 mg/kg)",8.9 mL/cm^3
same,VT (volume of distribution),"[2]; Anterior Cingulate, Subject 2, 2TC, baseline",13.7 mL/cm^3
same,VT (volume of distribution),"[2]; Anterior Cingulate, Subject 2, 2TC, blocking (Compound B 3 mg/kg)",10.6 mL/cm^3
same,VT (volume of distribution),"[2]; Anterior Cingulate, Subject 2, LGA, baseline",14.6 mL/cm^3
same,VT (volume of distribution),"[2]; Anterior Cingulate, Subject 2, LGA, blocking (Compound B 3 mg/kg)",10.4 mL/cm^3
same,VT (volume of distribution),"[2]; Cerebellum, Subject 1, 2TC, baseline",11.5 mL/cm^3
same,VT (volume of distribution),"[2]; Cerebellum, Subject 1, 2TC, blocking (Compound B 3 mg/kg)",7.6 mL/cm^3
same,VT (volume of distribution),"[2]; Cerebellum, Subject 1, LGA, baseline",10.2 mL/cm^3
same,VT (volume of distribution),"[2]; Cerebellum, Subject 1, LGA, blocking (Compound B 3 mg/kg)",7.7 mL/cm^3
same,VT (volume of distribution),"[2]; Cerebellum, Subject 2, 2TC, baseline",8.6 mL/cm^3
same,VT (volume of distribution),"[2]; Cerebellum, Subject 2, 2TC, blocking (Compound B 3 mg/kg)",9.6 mL/cm^3
same,VT (volume of distribution),"[2]; Cerebellum, Subject 2, LGA, baseline",9.2 mL/cm^3
same,VT (volume of distribution),"[2]; Cerebellum, Subject 2, LGA, blocking (Compound B 3 mg/kg)",9.7 mL/cm^3
same,VT (volume of distribution),"[2]; Dorsolateral Frontal Cortex, Subject 1, 2TC, baseline",26.2 mL/cm^3
same,VT (volume of distribution),"[2]; Dorsolateral Frontal Cortex, Subject 1, 2TC, blocking (Compound B 3 mg/kg)",10.2 mL/cm^3
same,VT (volume of distribution),"[2]; Dorsolateral Frontal Cortex, Subject 1, LGA, baseline",22.9 mL/cm^3
same,VT (volume of distribution),"[2]; Dorsolateral Frontal Cortex, Subject 1, LGA, blocking (Compound B 3 mg/kg)",10.1 mL/cm^3
same,VT (volume of distribution),"[2]; Dorsolateral Frontal Cortex, Subject 2, 2TC, baseline",15.2 mL/cm^3
same,VT (volume of distribution),"[2]; Dorsolateral Frontal Cortex, Subject 2, 2TC, blocking (Compound B 3 mg/kg)",12.3 mL/cm^3
same,VT (volume of distribution),"[2]; Dorsolateral Frontal Cortex, Subject 2, LGA, baseline",15.5 mL/cm^3
same,VT (volume of distribution),"[2]; Dorsolateral Frontal Cortex, Subject 2, LGA, blocking (Compound B 3 mg/kg)",10.6 mL/cm^3
same,VT (volume of distribution),"[2]; Enthorinal Cortex, Subject 1, 2TC, baseline",14.6 mL/cm^3
same,VT (volume of distribution),"[2]; Enthorinal Cortex, Subject 1, 2TC, blocking (Compound B 3 mg/kg)",8.1 mL/cm^3
same,VT (volume of distribution),"[2]; Enthorinal Cortex, Subject 1, LGA, baseline",11.7 mL/cm^3
same,VT (volume of distribution),"[2]; Enthorinal Cortex, Subject 1, LGA, blocking (Compound B 3 mg/kg)",7.4 mL/cm^3
same,VT (volume of distribution),"[2]; Enthorinal Cortex, Subject 2, 2TC, baseline",10.8 mL/cm^3
same,VT (volume of distribution),"[2]; Enthorinal Cortex, Subject 2, 2TC, blocking (Compound B 3 mg/kg)",10.1 mL/cm^3
same,VT (volume of distribution),"[2]; Enthorinal Cortex, Subject 2, LGA, baseline",10.5 mL/cm^3
same,VT (volume of distribution),"[2]; Enthorinal Cortex, Subject 2, LGA, blocking (Compound B 3 mg/kg)",7.8 mL/cm^3
same,VT (volume of distribution),"[2]; Hippocampus, Subject 1, 2TC, baseline",30.3 mL/cm^3
same,VT (volume of distribution),"[2]; Hippocampus, Subject 1, 2TC, blocking (Compound B 3 mg/kg)",7.4 mL/cm^3
same,VT (volume of distribution),"[2]; Hippocampus, Subject 1, LGA, baseline",19.4 mL/cm^3
same,VT (volume of distribution),"[2]; Hippocampus, Subject 1, LGA, blocking (Compound B 3 mg/kg)",7.5 mL/cm^3
same,VT (volume of distribution),"[2]; Hippocampus, Subject 2, 2TC, baseline",19.8 mL/cm^3
same,VT (volume of distribution),"[2]; Hippocampus, Subject 2, 2TC, blocking (Compound B 3 mg/kg)",11.1 mL/cm^3
same,VT (volume of distribution),"[2]; Hippocampus, Subject 2, LGA, baseline",17.4 mL/cm^3
same,VT (volume of distribution),"[2]; Hippocampus, Subject 2, LGA, blocking (Compound B 3 mg/kg)",11.0 mL/cm^3
same,VT (volume of distribution),"[2]; Occipital Cortex, Subject 1, 2TC, baseline",17.8 mL/cm^3
same,VT (volume of distribution),"[2]; Occipital Cortex, Subject 1, 2TC, blocking (Compound B 3 mg/kg)",8.4 mL/cm^3
same,VT (volume of distribution),"[2]; Occipital Cortex, Subject 1, LGA, baseline",15.1 mL/cm^3
same,VT (volume of distribution),"[2]; Occipital Cortex, Subject 1, LGA, blocking (Compound B 3 mg/kg)",8.0 mL/cm^3
same,VT (volume of distribution),"[2]; Occipital Cortex, Subject 2, 2TC, baseline",12.9 mL/cm^3
same,VT (volume of distribution),"[2]; Occipital Cortex, Subject 2, 2TC, blocking (Compound B 3 mg/kg)",10.6 mL/cm^3
same,VT (volume of distribution),"[2]; Occipital Cortex, Subject 2, LGA, baseline",13.1 mL/cm^3
same,VT (volume of distribution),"[2]; Occipital Cortex, Subject 2, LGA, blocking (Compound B 3 mg/kg)",10.0 mL/cm^3
same,Brain entry,[2]; PET image analysis,readily entered the brain
same,Regional uptake,[2]; PET image analysis,consistent with the known distribution of Compound B
same,VT (volume of distribution),"[2]; Striatum, Subject 1, 2TC, baseline",14.9 mL/cm^3
same,VT (volume of distribution),"[2]; Striatum, Subject 1, 2TC, blocking (Compound B 3 mg/kg)",9.0 mL/cm^3
same,VT (volume of distribution),"[2]; Striatum, Subject 1, LGA, baseline",13.9 mL/cm^3
same,VT (volume of distribution),"[2]; Striatum, Subject 1, LGA, blocking (Compound B 3 mg/kg)",9.2 mL/cm^3
same,VT (volume of distribution),"[2]; Striatum, Subject 2, 2TC, baseline",13.2 mL/cm^3
same,VT (volume of distribution),"[2]; Striatum, Subject 2, 2TC, blocking (Compound B 3 mg/kg)",11.5 mL/cm^3
same,VT (volume of distribution),"[2]; Striatum, Subject 2, LGA, baseline",13.4 mL/cm^3
same,VT (volume of distribution),"[2]; Striatum, Subject 2, LGA, blocking (Compound B 3 mg/kg)",11.2 mL/cm^3
same,VT (volume of distribution),"[2]; Thalamus, Subject 1, 2TC, baseline",17.6 mL/cm^3
same,VT (volume of distribution),"[2]; Thalamus, Subject 1, 2TC, blocking (Compound B 3 mg/kg)",8.8 mL/cm^3
same,VT (volume of distribution),"[2]; Thalamus, Subject 1, LGA, baseline",15.7 mL/cm^3
same,VT (volume of distribution),"[2]; Thalamus, Subject 1, LGA, blocking (Compound B 3 mg/kg)",8.9 mL/cm^3
same,VT (volume of distribution),"[2]; Thalamus, Subject 2, 2TC, baseline",11.6 mL/cm^3
same,VT (volume of distribution),"[2]; Thalamus, Subject 2, 2TC, blocking (Compound B 3 mg/kg)",9.9 mL/cm^3
same,VT (volume of distribution),"[2]; Thalamus, Subject 2, LGA, baseline",12.1 mL/cm^3
same,VT (volume of distribution),"[2]; Thalamus, Subject 2, LGA, blocking (Compound B 3 mg/kg)",9.8 mL/cm^3
same,Change of Compound A in regions of high uptake on blockage of PDE4D,[2]; high dose of Compound B,substantial reduction
same,fraction unbound,"[3]; Subject 1, baseline",0.059
same,fraction unbound,"[3]; Subject 1, blocking (Compound B 3 mg/kg)",0.059
same,fraction unbound,"[3]; Subject 2, baseline",0.067
same,fraction unbound,"[3]; Subject 2, blocking (Compound B 3 mg/kg)",0.047
